How the values were obtained:
[1] = Stability of a trace element mix in glass bottle, 6 months at 5° C. or 40° C. (Table V); details: for Concentration recovered, T6M 5° C. / Percentage of the recovered TE, T6M 5° C. / Concentration recovered, T6M 40° C. / Percentage of the recovered TE, T6M 40° C.: TE mix, pH 2.2, 200 mM malic acid, glass bottle (about 3 ppm DO), heat sterilized; for Concentration recovered, T6M 5° C. / Percentage of the recovered TE, T6M 5° C.: 6 months at 5° C.; for Percentage of the recovered TE, T6M 5° C. / Percentage of the recovered TE, T6M 40° C.: vs theoretical concentration; for Concentration recovered, T6M 40° C. / Percentage of the recovered TE, T6M 40° C.: 6 months at 40° C.
Description: The solution was heat sterilized and stored 6 months at 40° C. or 5° C.(T6M 40° C. and T6M 5° C., respectively).

[2] = Regression between Se assay and log dissolved oxygen (Example 7, FIG. 13); type: physicochemical; details: fitted line Se dosage vs log oxygen content; sterilized samples stored at 40° C.
Description: The impact of oxygen seems of major importance in the stability of Selenite. […] To confirm this hypothesis, a regression test was performed between Se assay results and log(dissolved oxygen results). Only sterilized samples stored at 40° C. were considered as the sterilization and storage at high temperature seem to both increase the Se degradation.
Dissolved oxygen content is so the most impacting parameter and CQA (Critical Quality Attribute) in the stability of Selenium. As shown in the Figure, low oxygen amounts of around 0.5 ppm can be sufficient to ensure the stability of Selenite in solution, no saturation would be required.

Row | Compound | Concentration recovered, T6M 5° C. [1] [ng/mL] | Percentage of the recovered TE, T6M 5° C. [1] [%] | Concentration recovered, T6M 40° C. [1] [ng/mL] | Percentage of the recovered TE, T6M 40° C. [1] [%] | Oxygen amount sufficient to ensure the stability of Selenite in solution [2] | Stability of selenite ([1]; in the presence of few ppm of dissolved oxygen)
1 | [Cr] [Cr, chromium] | 306 | 77.3 | 329 | 83.1 |  | 
2 | [Cu] [Cu, copper] | 9784 | 81.1 | 10504 | 87.1 |  | 
3 | F [F, fluoride] |  | 94 |  | 88 |  | 
4 | I [I, iodide] | 3167 | 78.6 | 3401 | 84.4 |  | 
5 | [Mo] [Mo, molybdenum] | 653 | 79.9 | 707 | 86.6 |  | 
6 | [Se] [Se, selenium] | 2446 | 87.2 | 2461 | 87.7 |  | 
7 | [Zn] [Zn, zinc] | 158347 | 77.8 | 171822 | 84.4 |  | 
8 | O=[Se](O)O [selenite, sodium selenite] |  |  |  |  | around 0.5 ppm | stable

Source: patent US12357536B2, “Containers with selective dissolved gas content” (BAXTER INTERNATIONAL INC., priority 2021, dated 2025)
